Assays:
full length human TREX1 = target: T1, full length human TREX1 (Homo sapiens, UniProt Q9NSU2); assay: hTREX1 Biochemical Assay (fluorescence, dsDNA substrate degradation); settings: biochemical, read-out: hTREX1 IC50
T1 construct: N-terminally His-Tev tagged full length human TREX1; made in house; host or cells: E. coli
T1 sequence (Q9NSU2 1-314): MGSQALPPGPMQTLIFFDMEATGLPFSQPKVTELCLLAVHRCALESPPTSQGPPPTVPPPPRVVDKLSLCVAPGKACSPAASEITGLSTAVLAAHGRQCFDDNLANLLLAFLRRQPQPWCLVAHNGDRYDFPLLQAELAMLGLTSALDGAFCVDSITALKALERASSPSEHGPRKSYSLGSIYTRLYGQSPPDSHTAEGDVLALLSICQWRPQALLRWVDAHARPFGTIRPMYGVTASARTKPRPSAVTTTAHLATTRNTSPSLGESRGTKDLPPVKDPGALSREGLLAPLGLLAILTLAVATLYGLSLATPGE
Outline: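 Fluorescence rises as enzyme degrades a quenched TEX615-labelled dsDNA substrate (60 nM) in 50 mM Tris, 150 mM NaCl, 5 mM MgCl2, pH 7.4. Full-length His-Tev-tagged human TREX1, 4 pM, sits with compound 4 hours at 25° C before substrate; reaction 18 hours, stopped with EDTA.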

full length mouse TREX1 = target: T2, full length mouse TREX1 (Mus musculus, UniProt Q91XB0); assay: mTREX1 Biochemical Assay (fluorescence, dsDNA substrate degradation); settings: biochemical, read-out: mTREX1 IC50
T2 construct: N-terminally His-Tev tagged full length mouse TREX1; made in house; host or cells: E. coli
T2 sequence (Q91XB0 1-314): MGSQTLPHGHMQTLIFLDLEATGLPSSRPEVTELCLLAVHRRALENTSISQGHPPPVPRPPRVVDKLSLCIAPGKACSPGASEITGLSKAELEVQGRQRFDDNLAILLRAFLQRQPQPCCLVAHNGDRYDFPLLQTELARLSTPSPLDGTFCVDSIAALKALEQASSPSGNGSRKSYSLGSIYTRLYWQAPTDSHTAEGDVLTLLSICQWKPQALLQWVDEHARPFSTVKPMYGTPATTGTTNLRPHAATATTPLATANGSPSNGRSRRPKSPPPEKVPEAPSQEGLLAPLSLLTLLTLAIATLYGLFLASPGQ
Outline: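 Reaction run 18 h at 25° C. with 60 nM TEX615/quencher-labelled dsDNA and 6 pM mouse TREX1 in Tris buffer (pH 7.4, 5 mM MgCl2, 1.0% DMSO), enzyme having sat 4 h with compound across 10 concentrations. EDTA quench; substrate degradation measured as fluorescence increase.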

[1] = target: T3, human TREX2 (residues M44-A279) (Homo sapiens, UniProt Q9BQ50); assay: hTREX2 Biochemical Assay (fluorescence, dsDNA substrate degradation); settings: biochemical selectivity for hTREX1 vs hTREX2
T3 construct: human TREX2 (residues M44-A279, expressed in E. coli); made in house; host or cells: E. coli
T3 sequence (Q9BQ50 44-279 isoform Q9BQ50-1): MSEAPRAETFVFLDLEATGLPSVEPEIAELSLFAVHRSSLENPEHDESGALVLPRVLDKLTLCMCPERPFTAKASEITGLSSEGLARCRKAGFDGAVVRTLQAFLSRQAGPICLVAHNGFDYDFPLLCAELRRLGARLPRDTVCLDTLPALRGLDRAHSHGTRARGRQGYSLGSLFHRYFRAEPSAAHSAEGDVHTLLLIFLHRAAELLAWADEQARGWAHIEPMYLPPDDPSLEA
Outline: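 Fluorogenic dsDNA degradation read at 615 nm (570 nm excitation) after EDTA quench. Final 60 nM substrate, 50 pM His-Tev-tagged enzyme, 5 mM MgCl2, pH 7.4, 1.0% DMSO; 4 h compound–enzyme preincubation then 18 h reaction, both 25 °C; 10-point titration.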

| Structure (SMILES) | IC50 (full length human TREX1) | IC50 (full length mouse TREX1) | hTREX1 vs hTREX2 selectivity [1] |
| --- | --- | --- | --- |
| CC(c1nc(C(=O)Nc2cnoc2)c(O)c(=O)n1C)C(c1ccccc1Cl)n1nccc1C(N)=O (single isomer, unassigned) [Example 147 D1E2] | > 10 nM | > 10 nM | A (A = <25 fold selective for hTREX1) |
| CCn1c(C(C)C(c2cnn(C)c2)c2ccccc2C#N)nc(C(=O)Nc2cnoc2)c(O)c1=O (single isomer, unassigned) [Example 149 D1E1] | > 10 nM | > 10 nM | A (A = <25 fold selective for hTREX1) |
| CCn1c(C(C)C(c2cnn(C)c2)c2ccccc2C#N)nc(C(=O)Nc2cnoc2)c(O)c1=O (single isomer, unassigned) [Example 149 D2E1] | > 10 nM | > 10 nM | A (A = <25 fold selective for hTREX1) |
| CCn1c(C(C)C(c2cnn(C)c2)c2ccccc2C#N)nc(C(=O)Nc2cnoc2)c(O)c1=O (single isomer, unassigned) [Example 149 D2E2] | > 10 nM | > 10 nM | B (B = 25 to 50-fold selective for hTREX1) |
| CC(c1nc(C(=O)Nc2cnoc2)c(O)c(=O)n1C)C(c1cnn(C(F)(F)F)c1)c1ccccc1C#N (single isomer, unassigned) [Example 151 D1E2] | > 10 nM | > 10 nM | A (A = <25 fold selective for hTREX1) |
| CC(c1nc(C(=O)Nc2cnoc2)c(O)c(=O)n1C)C(c1ccccc1Cl)c1nncn1C (single isomer, unassigned) [Example 152 D1E2] | > 10 nM | > 10 nM | A (A = <25 fold selective for hTREX1) |
| CC(c1nc(C(=O)Nc2cnoc2)c(O)c(=O)n1C)C(c1ccccc1Cl)c1nncn1C (single isomer, unassigned) [Example 152 D2E1] | > 10 nM | > 10 nM | B (B = 25 to 50-fold selective for hTREX1) |
| CC(c1nc(C(=O)Nc2cnoc2)c(O)c(=O)n1C)C(c1ccccc1Cl)c1nncn1C (single isomer, unassigned) [Example 152 D2E2] | > 10 nM | > 10 nM | A (A = <25 fold selective for hTREX1) |
| CC(=O)N(C)c1nn(C)cc1C(c1ccccc1C#N)C(C)c1nc(C(=O)Nc2cnoc2)c(O)c(=O)n1C (single isomer, unassigned) [Example 153 D1E2] | > 10 nM | > 10 nM | A (A = <25 fold selective for hTREX1) |
| Cc1nn(C)c(C)c1C(c1cc(F)ccc1Cl)C(C)c1nc(C(=O)Nc2cnoc2)c(O)c(=O)n1C (single isomer, unassigned) [Example 154 D1E2] | > 10 nM | > 10 nM | A (A = <25 fold selective for hTREX1) |
| CC(c1nc(C(=O)Nc2cnoc2)c(O)c(=O)n1C)C(c1ccccc1)c1cccnc1C#N (single isomer, unassigned) [Example 155 D1E1] | > 10 nM | > 10 nM | B (B = 25 to 50-fold selective for hTREX1) |
| CC(c1nc(C(=O)Nc2cnoc2)c(O)c(=O)n1C)C(c1ccccc1)c1cccnc1C#N (single isomer, unassigned) [Example 155 D2E2] | > 10 nM | > 10 nM | A (A = <25 fold selective for hTREX1) |
| Cc1nnc(C(c2ccccc2Cl)C(C)c2nc(C(=O)Nc3cnoc3)c(O)c(=O)n2C)o1 (single isomer, unassigned) [Example 156 D1E2] | > 10 nM | > 10 nM | A (A = <25 fold selective for hTREX1) |
| Cc1nnc(C(c2ccccc2Cl)C(C)c2nc(C(=O)Nc3cnoc3)c(O)c(=O)n2C)o1 (single isomer, unassigned) [Example 156 D2E1] | > 10 nM | > 10 nM | A (A = <25 fold selective for hTREX1) |
| Cc1nnc(C(c2ccccc2Cl)C(C)c2nc(C(=O)Nc3cnoc3)c(O)c(=O)n2C)o1 (single isomer, unassigned) [Example 156 D2E2] | 1 to 10 nM | > 10 nM | B (B = 25 to 50-fold selective for hTREX1) |

Results, then the molecule that gave them:

| IC50 (full length human TREX1) | IC50 (full length mouse TREX1) | hTREX1 vs hTREX2 selectivity [1] | Structure (SMILES) |
| --- | --- | --- | --- |
| > 10 nM | > 10 nM | A (A = <25 fold selective for hTREX1) | CCc1cnn(C(c2ccccc2Cl)C(C)c2nc(C(=O)Nc3cnoc3)c(O)c(=O)n2C)c1 (single isomer, unassigned) [Example 134 D1E2] |
| > 10 nM | > 10 nM | A (A = <25 fold selective for hTREX1) | CC(C)c1cnn(C(c2ccccc2Cl)C(C)c2nc(C(=O)Nc3cnoc3)c(O)c(=O)n2C)c1 (single isomer, unassigned) [Example 135 D1E2] |
| > 10 nM | > 10 nM | A (A = <25 fold selective for hTREX1) | Cc1cc(C)n(C(c2ccccc2Cl)C(C)c2nc(C(=O)Nc3cnoc3)c(O)c(=O)n2C)n1 (single isomer, unassigned) [Example 136 D1E1] |
| > 10 nM | > 10 nM | A (A = <25 fold selective for hTREX1) | Cc1cc(C)n(C(c2ccccc2C#N)C(C)c2nc(C(=O)Nc3cnoc3)c(O)c(=O)n2C)n1 (single isomer, unassigned) [Example 137 D1E2] |
| > 10 nM | > 10 nM | A (A = <25 fold selective for hTREX1) | Cc1ccnn1C(c1ccccc1C#N)C(C)c1nc(C(=O)Nc2cnoc2)c(O)c(=O)n1C (single isomer, unassigned) [Example 138 D1E2] |
| > 10 nM | > 10 nM | A (A = <25 fold selective for hTREX1) | CC(c1nc(C(=O)Nc2cnoc2)c(O)c(=O)n1C)C(c1ccccc1Cl)n1cc(C(F)(F)F)cn1 (single isomer, unassigned) [Example 139 D1E2] |
| > 10 nM | > 10 nM | A (A = <25 fold selective for hTREX1) | CC(c1nc(C(=O)Nc2cnoc2)c(O)c(=O)n1C)C(c1ccccc1Cl)n1nccc1C#N (single isomer, unassigned) [Example 140 D1E2] |
| > 10 nM | > 10 nM | A (A = <25 fold selective for hTREX1) | CC(c1nc(C(=O)Nc2cnoc2)c(O)c(=O)n1C)C(c1ccccc1Cl)n1cc2ccccc2n1 (single isomer, unassigned) [Example 141 D1E2] |
| > 10 nM | > 10 nM | A (A = <25 fold selective for hTREX1) | Cc1cn(C(c2ccccc2Cl)C(C)c2nc(C(=O)Nc3cnoc3)c(O)c(=O)n2C)cn1 (single isomer, unassigned) [Example 142 D1E1] |
| > 10 nM | > 10 nM | A (A = <25 fold selective for hTREX1) | CC(c1nc(C(=O)Nc2cnoc2)c(O)c(=O)n1C)C(c1ccccc1Cl)n1cnc2ccccc21 (single isomer, unassigned) [Example 143 D1E2] |
| > 10 nM | > 10 nM | A (A = <25 fold selective for hTREX1) | Cc1cnn(C(c2cc(F)ccc2Cl)C(C)c2nc(C(=O)Nc3cnoc3)c(O)c(=O)n2C)c1 (single isomer, unassigned) [Example 144 D1E1] |
| > 10 nM | > 10 nM | A (A = <25 fold selective for hTREX1) | Cc1ccnn1C(c1cc(F)ccc1Cl)C(C)c1nc(C(=O)Nc2cnoc2)c(O)c(=O)n1C (single isomer, unassigned) [Example 145 D1E2] |
| > 10 nM | > 10 nM | A (A = <25 fold selective for hTREX1) | Cc1ccn(C(c2cc(F)ccc2Cl)C(C)c2nc(C(=O)Nc3cnoc3)c(O)c(=O)n2C)n1 (single isomer, unassigned) [Example 146 D1E2] |

Reference: US20240246946A1, “MODULATORS OF TREX1” (Constellation Pharmaceuticals, Inc., priority 2021, published 2024)
